Results published in patent EP0560983B1, “New DNA sequence” (priority 1991, dated 1993).

Tests used:
Type in all cases: biochemical, Brevibacterium sterolicum ATCC 21387
cholesterol oxidase I [1] = molecular target: T1, cholesterol oxidase I (Brevibacterium sterolicum, UniProt P22637); test: Influence of inhibitor on enzyme activity; details: inhibitor at 1 mM, activity in the absence of the inhibitor = 100
T1 construct: host or cells: Brevibacterium sterolicum ATCC 21387 (origin of the enzyme; how it was prepared is not described)
Description: (§1) (3) Working pH for activity: The working pH of cholesterol oxidase II is in a range of 5.0 to 7.5, whereas that of cholesterol oxidase I is in a range of 6.0 to 7.5. […]
(§2) (d) Based on the amount of hydrogen peroxide formed, the amount of oxygen consumed and identification of the reaction product as described in (a), (b) and (c), it is recognized that the enzyme of the present invention acts on specifically cholesterol, that cholesterol was oxidized into hydrogen peroxide and 4-cholesten-3-one; that is, this enzyme has a cholesterol oxidase activity. [drawing 2] wherein R represents [drawing 3] • II. Working pH range and stable pH range The working pH for the activity is in a range of 5.0 to 7.5. The working pH range was determined by assaying the activity at each pH (phosphate buffer, Tris-HCl buffer, sodium acetate buffer) after the reaction at 37°C for 5 minutes. […] The pH range is determined by treating the enzyme at 50°C for 60 minutes at each pH (phosphate buffer, Tris-HCl buffer, sodium acetate buffer) and then assaying the residual activity. Method for determination of titer The amount of enzyme which catalyzes the reaction of decomposing 1 µmole of cholesterol at 37°C for one minute in the presence of oxygen is defined as one unit. The titer is determined as follows. With shaking, the enzyme acts on cholesterol and 4-aminoantipyrine and phenol are reacted with the formed hydrogen peroxide in the presence of peroxidase to form quinoneimine pigment. Absorption of the thus formed quinoneimine pigment in the visible region is measured to determine the amount of hydrogen peroxide generated. Thus, the titer of the enzyme is determined. Hereafter specific activity is defined as activity per 1 mg of protein (unit/mg). Furthermore, an amount of enzyme protein is determined by absorbance at 280 nm (1 mg/mℓ when absorbance is 1). • (a) Principle The enzyme activity is determined by reacting hydrogen peroxide generated by the enzyme with 4-aminoantipyrine and phenol in the presence of peroxidase and quantitatively determining the formed quinoneimine pigment. The reaction is shown by the following equations (1) and (2). [drawing 4] wherein R represents [drawing 5] [drawing 6] • (b) Procedure In a test tube, there are charged 1.0 ml of 3 mM cholesterol solution (which is prepared by adding 6 mℓ of 50 mM cholesterol ethanol solution to 94 mℓ of 1.05% Triton X-100 solution with stirring, heating the mixture for 10 minutes on a water bath, cooling the mixture in water, adding distilled water to the mixture until the total volume is 100 mℓ; and is not allowed to be used 30 minutes or longer after preparation), 0.3 mℓ of 50 mM sodium bilate solution, 0.3 mℓ of 0.5 mM potassium-sodium phosphate buffer (pH 6.6), 0.5 mℓ of 42 mM phenol, 0.5 mℓ of 2.4 mM 4-aminoantipyrine and 0.2 mℓ of 115 units/mℓ horseradish-derived peroxidase. The mixture is agitated. After maintaining at 37°C for 3 mintues, 0.2 mℓ of an enzyme solution is added to the mixture. With shaking, the reaction is carried out at 37°C for 5 to 10 minutes. Then, absorbance is measured at 500 nm (OD 500 nm). • (c) Calculation of titer One unit of cholesterol oxidase II corresponds to an enzyme activity which decomposes 1 µmole of cholesterol at 37°C for 1 minute. On the other hand, it is reported that absorption coefficient of 1 mM quinoneimine is 5.33 [Clinical Chemistry, 20, 470 (1974)]. […]

cholesterol oxidase II [2] = test: Influence of inhibitor on enzyme activity; details: for Relative Activity (%): cholesterol oxidase II, inhibitor at 1 mM, activity in the absence of the inhibitor = 100; for Inhibition: whether cholesterol oxidase II is inhibited, in words
Description: as §1, §2

cholesterol oxidase I [3] = molecular target: T1, cholesterol oxidase I; test: Substrate specificity (relative activity on each substrate); details: activity of cholesterol oxidase I on each substrate; cholesterol = 100
Description: (§3) The working pH range was determined by assaying the activity at each pH (phosphate buffer, Tris-HCl buffer, sodium acetate buffer) after the reaction at 37°C for 5 minutes. […] The pH range is determined by treating the enzyme at 50°C for 60 minutes at each pH (phosphate buffer, Tris-HCl buffer, sodium acetate buffer) and then assaying the residual activity. Method for determination of titer The amount of enzyme which catalyzes the reaction of decomposing 1 µmole of cholesterol at 37°C for one minute in the presence of oxygen is defined as one unit. The titer is determined as follows. With shaking, the enzyme acts on cholesterol and 4-aminoantipyrine and phenol are reacted with the formed hydrogen peroxide in the presence of peroxidase to form quinoneimine pigment. Absorption of the thus formed quinoneimine pigment in the visible region is measured to determine the amount of hydrogen peroxide generated. Thus, the titer of the enzyme is determined. Hereafter specific activity is defined as activity per 1 mg of protein (unit/mg). […] The mixture is agitated. After maintaining at 37°C for 3 mintues, 0.2 mℓ of an enzyme solution is added to the mixture. With shaking, the reaction is carried out at 37°C for 5 to 10 minutes. Then, absorbance is measured at 500 nm (OD 500 nm). • (c) Calculation of titer One unit of cholesterol oxidase II corresponds to an enzyme activity which decomposes 1 µmole of cholesterol at 37°C for 1 minute. […] Optimum temperature The optimum temperature at a pH of 6.6 for 3 minutes of the reaction time was examined. […] After heat treatment at pH of 7.0 for 60 minutes in 0.05 M phosphate buffer, the residual activity was determined. […] Reaction rates of the two enzymes were measured in various concentrations of cholesterol. […] Michealis' constant was determined from the Line weaver-Burk plot [refer to J. Am. […] Determination of the amino acid sequence and nucleotide sequence of cholesterol oxidase II Cholesterol oxidase II may be divided into 2 subunits, using reverse phase high performance liquid chromatography. Each subunit is digested with a protease, for example trypsin, and the digested subunit is further fractionated using high performance liquid chromatography, to obtain protease-digested fragments. The amino acid sequence of each digested fragment may be analyzed according to the conventional method, with the amino acid sequencer.

cholesterol oxidase II [4] = test: as above; details: for Relative Activity (%): activity of cholesterol oxidase II on each substrate, cholesterol = 100; for Substrate specificity: whether cholesterol oxidase II acts on the substrate, in words
Description: as §3

T1 sequence (P22637 46-552): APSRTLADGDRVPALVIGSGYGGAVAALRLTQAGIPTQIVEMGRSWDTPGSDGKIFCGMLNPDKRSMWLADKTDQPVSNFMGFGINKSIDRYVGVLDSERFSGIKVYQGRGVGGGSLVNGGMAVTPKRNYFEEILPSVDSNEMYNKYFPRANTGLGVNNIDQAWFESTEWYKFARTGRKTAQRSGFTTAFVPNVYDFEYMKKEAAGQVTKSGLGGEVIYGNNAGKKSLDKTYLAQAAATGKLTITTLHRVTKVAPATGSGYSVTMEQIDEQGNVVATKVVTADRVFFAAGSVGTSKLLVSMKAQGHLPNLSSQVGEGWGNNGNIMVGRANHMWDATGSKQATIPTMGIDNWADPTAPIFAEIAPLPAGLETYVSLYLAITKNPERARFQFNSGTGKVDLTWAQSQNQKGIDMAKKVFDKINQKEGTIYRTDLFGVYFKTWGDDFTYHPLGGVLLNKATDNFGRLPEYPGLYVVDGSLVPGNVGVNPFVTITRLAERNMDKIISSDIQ

Row | SMILES | Relative Activity (%) (cholesterol oxidase I [1]) | Relative Activity (%) (cholesterol oxidase II [2]) | Inhibition (cholesterol oxidase II [2]) | Relative Activity (%) (cholesterol oxidase I [3]) | Relative Activity (%) (cholesterol oxidase II [4]) | Substrate specificity (cholesterol oxidase II [4])
1 | O=[N+]([O-])[O-].[Ag+] [AgNO3, silver nitrate] | 0% | 1.0% | inhibited | – | – | –
2 | C[C@]12CC[C@@H](O)C[C@@H]1CC[C@@H]1[C@@H]2CC[C@]2(C)C(=O)CC[C@@H]12 [Androsterone] | – | – | – | 0% | 0% | does not act on
3 | CCCCC/C=C\C/C=C\CCCCCCCC(=O)O[C@H]1CC[C@@]2(C)C(=CC[C@H]3[C@@H]4CC[C@H]([C@H](C)CCCC(C)C)[C@@]4(C)CC[C@@H]32)C1 [Cholesterol linoleate] | – | – | – | 0% | 0% | does not act on
4 | CC(C)CCC[C@@H](C)[C@H]1CC[C@H]2[C@@H]3CC=C4C[C@@H](O)CC[C@]4(C)[C@H]3CC[C@]12C [Cholesterol, 5-cholesten-3-β-ol] | – | – | – | 100% | 100% | acts on
5 | C[C@]12CC[C@H](O)CC1=CC[C@@H]1[C@@H]2CC[C@]2(C)C(=O)CC[C@@H]12 [Dehydroisoandrosterone] | – | – | – | 41.4% | 13.0% | acts on
6 | C[C@]12CC[C@@H]3c4ccc(O)cc4CC[C@H]3[C@@H]1CC[C@@H]2O [Estradiol] | – | – | – | 0% | – | –
7 | CC(C)=CCC[C@@H](C)[C@H]1CC[C@@]2(C)C3=C(CC[C@]12C)[C@@]1(C)CC[C@H](O)C(C)(C)[C@@H]1CC3 [Lanosterol] | – | – | – | 0% | 0% | does not act on
8 | CC(=O)[C@H]1CC[C@H]2[C@@H]3CC=C4C[C@@H](O)CC[C@]4(C)[C@H]3CC[C@]12C [Pregnenolone] | – | – | – | 22.4% | 32.9% | acts on
9 | CC[C@H](/C=C/[C@@H](C)[C@H]1CC[C@H]2[C@@H]3CC=C4C[C@@H](O)CC[C@]4(C)[C@H]3CC[C@]12C)C(C)C [Stigmasterol] | – | – | – | 10.0% | 64.4% | acts on
10 | C=C1CC[C@H](O)C/C1=C/C=C1\CCC[C@]2(C)[C@@H]([C@H](C)CCCC(C)C)CC[C@@H]12 [Vitamin D3] | – | – | – | 0% | 0% | does not act on
11 | Oc1cccc2cccnc12 [o-Hydroxyquinoline] | – | 91.3% | inhibited | – | – | –
12 | O=S(=O)(O)c1cc[c]([Hg][Cl])cc1 [p-Chloromercury benzenesulfonate] | – | 87.0% | inhibited | – | – | –
13 | CC[C@H](CC[C@@H](C)[C@H]1CC[C@H]2[C@@H]3CC=C4C[C@@H](O)CC[C@]4(C)[C@H]3CC[C@]12C)C(C)C [β-Sitosterol] | – | – | – | 19.7% | 82.0% | acts on
